Results published in the NIST ThermoML archive (doi:10.1016/j.tca.2013.09.006).

What was measured:
[1] = mn = molality of the nth substance listed, in mol/kg; conditions: 101 kPa, Liquid; for mass density: Vibrating tube method; for speed of sound: vibrating tube:WF =
[2] = 101 kPa, Liquid; for mass density: Vibrating tube method; for speed of sound: vibrating tube

CC1(C)SC2C(NC(=O)C(N)c3ccccc3)C(=O)N2C1C(=O)O (centres undefined) + O
[1]
Conditions | mass density, 305.15 K [kg/m3] | mass density, 310.15 K [kg/m3] | mass density, 315.15 K [kg/m3] | speed of sound, 305.15 K [m/s] | speed of sound, 310.15 K [m/s] | speed of sound, 315.15 K [m/s]
m1 = 0.0005 | 995.062 | 993.352 | 991.353 | 1513.7 | 1523.7 | 1532.2
m1 = 0.002 | 995.271 | 993.569 | 991.665 | 1514.8 | 1524.8 | 1533
m1 = 0.004 | 995.458 | 993.755 | 991.87 | 1516 | 1526 | 1534

C[C@H](N)C(=O)N[C@@H](C)C(=O)O [L-alanyl-L-alanine] + O
[1]
Conditions | mass density, 305.15 K [kg/m3] | mass density, 310.15 K [kg/m3] | mass density, 315.15 K [kg/m3] | speed of sound, 305.15 K [m/s] | speed of sound, 310.15 K [m/s] | speed of sound, 315.15 K [m/s]
m1 = 0.00215 | 995.223 | 993.535 | 991.641 | 1514.2 | 1524.5 | 1532.9
m1 = 0.00421 | 995.35 | 993.662 | 991.767 | 1514.4 | 1524.8 | 1533
m1 = 0.00596 | 995.458 | 993.769 | 991.873 | 1514.5 | 1524.9 | 1533.1
m1 = 0.00831 | 995.604 | 993.913 | 992.016 | 1514.7 | 1525.1 | 1533.2
m1 = 0.00955 | 995.68 | 993.989 | 992.092 | 1514.9 | 1525.3 | 1533.4
m1 = 0.01169 | 995.812 | 994.12 | 992.222 | 1515 | 1525.5 | 1533.6
m1 = 0.01422 | 995.968 | 994.275 | 992.376 | 1515.2 | 1525.6 | 1533.7
m1 = 0.01594 | 996.074 | 994.38 | 992.48 | 1515.3 | 1525.8 | 1533.9
m1 = 0.01778 | 996.187 | 994.493 | 992.592 | 1515.5 | 1526 | 1534.1
m1 = 0.01983 | 996.314 | 994.618 | 992.716 | 1515.7 | 1526.2 | 1534.2

O [water]
[2]
Conditions | mass density [kg/m3] | speed of sound [m/s]
305.15 K | 995.09 | 1513.5
310.15 K | 993.403 | 1523.5
315.15 K | 991.51 | 1532.2

CC(C)C[C@H](NC(=O)[C@H](C)N)C(=O)O [L-alanyl-L-leucine] + O
[1]
Conditions | mass density, 305.15 K [kg/m3] | mass density, 310.15 K [kg/m3] | mass density, 315.15 K [kg/m3] | speed of sound, 305.15 K [m/s] | speed of sound, 310.15 K [m/s] | speed of sound, 315.15 K [m/s]
m1 = 0.00185 | 995.164 | 993.476 | 991.582 | 1514.3 | 1524.7 | 1533.2
m1 = 0.00389 | 995.246 | 993.556 | 991.661 | 1514.4 | 1525 | 1533.4
m1 = 0.00579 | 995.323 | 993.631 | 991.734 | 1514.6 | 1525.2 | 1533.7
m1 = 0.00813 | 995.416 | 993.723 | 991.825 | 1514.7 | 1525.4 | 1533.9
m1 = 0.00966 | 995.478 | 993.783 | 991.884 | 1514.9 | 1525.7 | 1534
m1 = 0.0122 | 995.579 | 993.883 | 991.982 | 1515 | 1525.9 | 1534.3
m1 = 0.01422 | 995.66 | 993.962 | 992.06 | 1515.1 | 1526 | 1534.5
m1 = 0.01589 | 995.727 | 994.027 | 992.124 | 1515.3 | 1526.3 | 1534.7
m1 = 0.01753 | 995.792 | 994.092 | 992.188 | 1515.5 | 1526.6 | 1534.9
m1 = 0.02055 | 995.913 | 994.21 | 992.304 | 1515.6 | 1526.7 | 1535

CC(C)[C@H](NC(=O)[C@H](C)N)C(=O)O [L-alanyl-L-valine] + O
[1]
Conditions | mass density, 305.15 K [kg/m3] | mass density, 310.15 K [kg/m3] | mass density, 315.15 K [kg/m3] | speed of sound, 305.15 K [m/s] | speed of sound, 310.15 K [m/s] | speed of sound, 315.15 K [m/s]
m1 = 0.00201 | 995.187 | 993.499 | 991.606 | 1514.3 | 1524.8 | 1533.5
m1 = 0.00414 | 995.289 | 993.601 | 991.707 | 1514.5 | 1525 | 1533.7
m1 = 0.00605 | 995.381 | 993.692 | 991.798 | 1514.6 | 1525.2 | 1534
m1 = 0.00791 | 995.471 | 993.781 | 991.886 | 1514.8 | 1525.5 | 1534.1
m1 = 0.01019 | 995.58 | 993.89 | 991.994 | 1515 | 1525.7 | 1534.3
m1 = 0.01179 | 995.657 | 993.966 | 992.07 | 1515.2 | 1525.9 | 1534.4
m1 = 0.01396 | 995.761 | 994.07 | 992.173 | 1515.4 | 1526.1 | 1534.6
m1 = 0.01551 | 995.835 | 994.143 | 992.246 | 1515.6 | 1526.4 | 1534.8
m1 = 0.01805 | 995.957 | 994.264 | 992.366 | 1515.8 | 1526.7 | 1535
m1 = 0.01971 | 996.037 | 994.343 | 992.445 | 1515.9 | 1526.9 | 1535.2
